According to ChEMBL document CHEMBL2440112, “Structure-activity relationships of the aromatic site in novel anticonvulsant pyrrolo[1,2-a]pyrazine derivatives” (Bioorg Med Chem Lett, 2013):
Active and inactive are the calls of the source.

Tests used:
Mus musculus [1] = test: Anticonvulsant activity in ip dosed albino mouse assessed as time of peak effect for protection against 6 Hz psychomotor seizure by minimal clonic seizure test; type: functional
Mus musculus [2] = test: Anticonvulsant activity in albino mouse assessed as protection against subcutaneous metrazole-induced seizures at 100 mg/kg, ip after 0.5 hrs; type: functional, organism-based; set-up: dose 100 mg/kg
Mus musculus [3] = test: Anticonvulsant activity in albino mouse assessed as protection against subcutaneous metrazole-induced seizures at 100 mg/kg, ip after 1 hr; type: functional, organism-based; set-up: dose 100 mg/kg
Mus musculus [4] = test: Anticonvulsant activity in albino mouse assessed as protection against subcutaneous metrazole-induced seizures at 100 mg/kg, ip after 0.25 hrs; type: functional, organism-based; set-up: dose 100 mg/kg
Mus musculus [5] = test: Neurotoxicity in albino mouse assessed as minimal motor impairment at 100 mg/kg, ip after 0.5 hrs by rotorod test; type: toxicity, organism-based; set-up: dose 100 mg/kg, route intraperitoneal; conditions: in vivo
Mus musculus [6] = test: Neurotoxicity in albino mouse minimal clonic seizure model assessed as minimal motor impairment at 100 mg/kg, ip after 2 hrs by rotorod test; type: toxicity, organism-based; set-up: dose 100 mg/kg, route intraperitoneal; conditions: in vivo
Mus musculus [7] = test: Neurotoxicity in albino mouse minimal clonic seizure model assessed as minimal motor impairment at 100 mg/kg, ip after 0.5 hrs by rotorod test; type: toxicity, organism-based; set-up: dose 100 mg/kg, route intraperitoneal; conditions: in vivo
Mus musculus [8] = test: Anticonvulsant activity in albino mouse assessed as protection against 6 Hz psychomotor seizure at 100 mg/kg, ip after 4 hrs by minimal clonic seizure test; type: functional, organism-based; set-up: dose 100 mg/kg
Mus musculus [9] = test: Neurotoxicity in albino mouse assessed as minimal motor impairment at 100 mg/kg, ip after 1 hr by rotorod test; type: toxicity, organism-based; set-up: dose 100 mg/kg, route intraperitoneal; conditions: in vivo
Mus musculus [10] = test: Neurotoxicity in albino mouse assessed as minimal motor impairment at 100 mg/kg, ip after 0.25 hrs by rotorod test; type: toxicity, organism-based; set-up: dose 100 mg/kg, route intraperitoneal; conditions: in vivo
Mus musculus [11] = test: Anticonvulsant activity in albino mouse assessed as protection against 6 Hz psychomotor seizure at 100 mg/kg, ip after 0.25 hrs by minimal clonic seizure test; type: functional, organism-based; set-up: dose 100 mg/kg
Mus musculus [12] = test: Neurotoxicity in albino mouse assessed as minimal motor impairment at 100 mg/kg, ip after 4 hrs by rotorod test; type: toxicity, organism-based; set-up: dose 100 mg/kg, route intraperitoneal; conditions: in vivo
Mus musculus [13] = test: Neurotoxicity in albino mouse minimal clonic seizure model assessed as minimal motor impairment at 100 mg/kg, ip after 4 hrs by rotorod test; type: toxicity, organism-based; set-up: dose 100 mg/kg, route intraperitoneal; conditions: in vivo
Mus musculus [14] = test: Anticonvulsant activity in albino mouse assessed as protection against 6 Hz psychomotor seizure at 100 mg/kg, ip after 2 hrs by minimal clonic seizure test; type: functional, organism-based; set-up: dose 100 mg/kg
Mus musculus [15] = test: Anticonvulsant activity in albino mouse assessed as protection against 6 Hz psychomotor seizure at 100 mg/kg, ip after 1 hr by minimal clonic seizure test; type: functional, organism-based; set-up: dose 100 mg/kg
Mus musculus [16] = test: Anticonvulsant activity in albino mouse assessed as protection against 6 Hz psychomotor seizure at 100 mg/kg, ip after 0.5 hrs by minimal clonic seizure test; type: functional, organism-based; set-up: dose 100 mg/kg
Mus musculus [17] = test: Neurotoxicity in albino mouse minimal clonic seizure model assessed as minimal motor impairment at 100 mg/kg, ip after 0.25 hrs by rotorod test; type: toxicity, organism-based; set-up: dose 100 mg/kg, route intraperitoneal; conditions: in vivo
Mus musculus [18] = test: Neurotoxicity in albino mouse minimal clonic seizure model assessed as minimal motor impairment at 100 mg/kg, ip after 1 hr by rotorod test; type: toxicity, organism-based; set-up: dose 100 mg/kg, route intraperitoneal; conditions: in vivo
Rattus norvegicus = test: Anticonvulsant activity in po dosed albino Sprague-Dawley rat assessed as protection against maximal electroshock-induced seizures after […] to 4 hrs; type: functional, organism-based
Mus musculus [19] = test: Anticonvulsant activity in albino mouse assessed as protection against maximal electroshock-induced seizures at 100 mg/kg, ip after 4 hrs; type: functional, organism-based; set-up: dose 100 mg/kg
Mus musculus [20] = test: Anticonvulsant activity in albino mouse assessed as protection against maximal electroshock-induced seizures at 100 mg/kg, ip after 0.5 hrs; type: functional, organism-based; set-up: dose 100 mg/kg
Mus musculus [21] = test: Anticonvulsant activity in albino mouse assessed as protection against subcutaneous metrazole-induced seizures at 100 mg/kg, ip after 4 hrs; type: functional, organism-based; set-up: dose 100 mg/kg
Mus musculus [22] = test: Anticonvulsant activity in albino mouse assessed as protection against maximal electroshock-induced seizures at 100 mg/kg, ip after 1 hr; type: functional, organism-based; set-up: dose 100 mg/kg
Mus musculus [23] = test: Anticonvulsant activity in albino mouse assessed as protection against maximal electroshock-induced seizures at 100 mg/kg, ip after 0.25 hrs; type: functional, organism-based; set-up: dose 100 mg/kg
Mus musculus [24] = test: Anticonvulsant activity in albino mouse assessed as protection against subcutaneous metrazole-induced seizures at 300 mg/kg, ip after 0.5 hrs; type: functional, organism-based; set-up: dose 300 mg/kg
Mus musculus [25] = test: Anticonvulsant activity in ip dosed albino mouse assessed as protection against 6 Hz psychomotor seizure by minimal clonic seizure test; type: functional
Mus musculus [26] = organism: Mus musculus; test: Protective index, ratio of TD50 for albino mouse minimal clonic seizure model to ED50 for albino mouse assessed as protection against 6 Hz psychomotor seizure; type: functional
[27] = Neurotoxicity in ip dosed albino mouse minimal clonic seizure model assessed as minimal motor impairment by rotorod test; type: toxicity, organism-based; conditions: in vivo

CCC1(C)CC(=O)NC1=O (configuration not stated) [ETHOSUXIMIDE]
0.25 h: Time (Mus musculus [1])

O=C1NC(=O)[C@@H]2CCCN2[C@H]1c1cc(Cl)cc(Cl)c1
active: Activity (Mus musculus [11]) | Activity (Mus musculus [16]) | Activity (Mus musculus [19]) | Activity (Mus musculus [20]) | Activity (Mus musculus [22]) | Activity (Mus musculus [23])
Non-toxic: Activity (Mus musculus [5]) | Activity (Mus musculus [6]) | Activity (Mus musculus [7]) | Activity (Mus musculus [9]) | Activity (Mus musculus [10]) | Activity (Mus musculus [12]) | Activity (Mus musculus [13]) | Activity (Mus musculus [17]) | Activity (Mus musculus [18])
inactive: Activity (Mus musculus [2]) | Activity (Mus musculus [3]) | Activity (Mus musculus [4]) | Activity (Mus musculus [8]) | Activity (Mus musculus [14]) | Activity (Mus musculus [15]) | Activity (Rattus norvegicus) | Activity (Mus musculus [21])

Cl.O=C1NC(=O)[C@@H]2CCCN2[C@H]1c1ccccc1Cl
active: Activity (Mus musculus [24])
inactive: Activity (Mus musculus [2]) | Activity (Rattus norvegicus) | Activity (Mus musculus [19]) | Activity (Mus musculus [20]) | Activity (Mus musculus [21]) | Activity (Mus musculus [22]) | Activity (Mus musculus [23])
Non-toxic: Activity (Mus musculus [5]) | Activity (Mus musculus [9]) | Activity (Mus musculus [10]) | Activity (Mus musculus [12])

COc1cccc([C@H]2C(=O)NC(=O)[C@@H]3CCCN23)c1
Non-toxic: Activity (Mus musculus [5]) | Activity (Mus musculus [9]) | Activity (Mus musculus [10]) | Activity (Mus musculus [12])
inactive: Activity (Mus musculus [2]) | Activity (Mus musculus [3]) | Activity (Mus musculus [4]) | Activity (Rattus norvegicus) | Activity (Mus musculus [19]) | Activity (Mus musculus [21]) | Activity (Mus musculus [22])
active: Activity (Mus musculus [20]) | Activity (Mus musculus [23])

O=C1NC(=O)[C@@H]2CCCN2[C@H]1c1cccs1
Non-toxic: Activity (Mus musculus [5]) | Activity (Mus musculus [9]) | Activity (Mus musculus [12])
inactive: Activity (Mus musculus [2]) | Activity (Rattus norvegicus) | Activity (Mus musculus [19]) | Activity (Mus musculus [21])
Toxic: Activity (Mus musculus [10])
active: Activity (Mus musculus [20])

Cc1ccc([C@H]2C(=O)NC(=O)[C@@H]3CCCN23)cc1
0.25 h: Time (Mus musculus [1])
167 mg/kg: TD50 [27]
active: Activity (Mus musculus [11]) | Activity (Mus musculus [15]) | Activity (Mus musculus [16])
41.7 mg/kg: ED50 (Mus musculus [25])
4: Ratio TD50/ED50 (Mus musculus [26])
Non-toxic: Activity (Mus musculus [5]) | Activity (Mus musculus [9]) | Activity (Mus musculus [10]) | Activity (Mus musculus [12])
inactive: Activity (Mus musculus [2]) | Activity (Mus musculus [8]) | Activity (Mus musculus [14]) | Activity (Rattus norvegicus) | Activity (Mus musculus [19]) | Activity (Mus musculus [20]) | Activity (Mus musculus [21]) | Activity (Mus musculus [22]) | Activity (Mus musculus [23])

O=C1NC(=O)[C@@H]2CCCN2[C@H]1c1cccc2ccccc12
inactive: Activity (Mus musculus [2]) | Activity (Rattus norvegicus) | Activity (Mus musculus [19]) | Activity (Mus musculus [20]) | Activity (Mus musculus [21])
Non-toxic: Activity (Mus musculus [5]) | Activity (Mus musculus [12])

O=C1NC(=O)[C@@H]2CCCN2[C@H]1c1ccoc1
inactive: Activity (Mus musculus [2]) | Activity (Rattus norvegicus) | Activity (Mus musculus [19]) | Activity (Mus musculus [20]) | Activity (Mus musculus [21])
Non-toxic: Activity (Mus musculus [5]) | Activity (Mus musculus [12])
